# Results from patent US6858638B2, “Substituted indazoles, compositions containing them, method of production and use” (Aventis Pharma S.A., priority 2002, dated 2005).
# What was measured:
# [1] = molecular target: T1, human FAK (Homo sapiens, UniProt Q05397); assay: FAK autophosphorylation inhibition, time resolved fluorescence (HTRF) assay; assay type: biochemical; settings: for inhibition at 10 µM: read-out: FAK % inhib at 10 μM
# T1 construct: The complete cDNA of human FAK; made in house; host or cells: baculovirus expression system (vector pFastBac HTc)
# In short: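 Autophosphorylation was detected by europium-cryptate anti-pTyr and XL665 anti-His energy transfer, percent inhibition from the 665/620 ratio relative to no-compound wells. Enzyme: His-FAK full length, 6.6 µg/ml, incubated 1 h at 37 °C, pH 7.2, 15 µM ATP.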
# [2] = molecular target: T2, human KDR enzyme (Homo sapiens, UniProt P35968); assay: KDR substrate (PLCγ) phosphorylation, scintillation assay; assay type: biochemical; settings: 10 μM; for inhibition at 10 µM: read-out: KDR % inhib at 10 μM
# T2 construct: The cytoplasmic domain of the human KDR enzyme; GST; made in house; host or cells: SF21 insect cells (baculovirus)
# In short: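 Values are percent inhibition relative to the compound-free control, read by scintillation counting of 33P incorporation after EDTA stop. Baculovirus/SF21-expressed GST-KDR cytoplasmic domain (100 ng) acted for 1 h at 37 °C in pH 7.2 MOPS kinase buffer. The substrate was GST-PLCγ SH2-SH3 (2 μg), added with γ33P-ATP and 2 μM unlabeled ATP.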
# [3] = molecular target: T3, Aurora2 kinase (Homo sapiens, UniProt O14965); assay: Aurora2 kinase radioactivity scintillation assay using nickel chelate (NuMA substrate); assay type: biochemical; settings: 10 μM; for inhibition at 10 µM: read-out: Aurora2 % inhib at 10 μM
# T3 construct: A complete recombinant Aurora2 enzyme; His tag (N); made in house; host or cells: E. coli
# T3 sequence (O14965 1-403): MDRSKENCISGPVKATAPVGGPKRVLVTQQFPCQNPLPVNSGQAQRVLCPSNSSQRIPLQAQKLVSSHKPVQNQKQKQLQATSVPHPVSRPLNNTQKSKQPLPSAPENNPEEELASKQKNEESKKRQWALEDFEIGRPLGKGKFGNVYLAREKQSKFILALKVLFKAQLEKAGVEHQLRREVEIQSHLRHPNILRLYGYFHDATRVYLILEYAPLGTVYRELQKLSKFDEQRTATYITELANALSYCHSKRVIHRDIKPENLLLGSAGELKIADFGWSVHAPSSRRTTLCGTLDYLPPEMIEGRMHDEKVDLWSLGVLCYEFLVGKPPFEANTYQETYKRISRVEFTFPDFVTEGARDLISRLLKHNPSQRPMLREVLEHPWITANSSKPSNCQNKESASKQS
# In short: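 Read-out is 33P incorporation into His-NuMA (Q1687-H2101, 0.5 μM) captured on nickel chelate, after 30 min at 37 °C with 0.02 μM His-Aurora2 and 1 μM ATP. Expressed as percentage inhibition of uncompounded control activity, background subtracted.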
# [4] = tested on: c-Src protein; assay: Src kinase phosphorylation of biotinylated cdc2 substrate, fluorescence (DELFIA); assay type: biochemical, human
# Description: The inhibition of the Src kinase is evaluated by measuring the phosphorylation of the biotinylated cdc2 substrate (Pierce) detected by fluorescence (DELFIA) using an antiphosphotyrosine antibody labeled with Europium, in 96-well Wallac plates. The c-Src protein used is a recombinant human protein produced in Baculovirus, comprising the SH3 and SH2 and the catalytic domains. The enzyme, the substrate and the various concentrations of test compounds are placed in the well in a 50 mM Tris buffer containing 10 mM MgCl2. The reaction is initiated by adding 10 μM of ATP. After incubation for 60 minutes at 30° C., the reaction is stopped by adding 75 mM EDTA. 50 μl are taken from each well and transferred into a plate coated with streptavidin. After incubation for 30 minutes at 25° C., the wells are washed with a washing buffer (Wallac) and then the antiphosphotyrosine antibody (PY20-Europium [Perkin Elmer]) is added in a volume of 75 μl. The plate is incubated for 30 minutes at 25° C. and then an “Enhancer” solution (Wallac) is added before reading the fluorescence using a fluorimeter (Perkin Elmer). The background noise is evaluated in triplicate in wells containing the substrate and the antibody in the absence of enzyme. The activity of the enzyme is measured (in triplicate) in the wells containing all the reagents in the absence of compound. The inhibition of the Src activity is expressed as percentage inhibition of the activity of the control determined in the absence of compound. The compound PP2 (Calbiochem) is included at various concentrations in each experiment as an inhibition control.
# [5] = molecular target: T4, human IGF1R cytoplasmic domain (Homo sapiens, UniProt P08069); assay: IGF1R autophosphorylation inhibition, time resolved fluorescence (HTRF) assay; assay type: biochemical; settings: 10 μM
# T4 construct: The human IGF1R cytoplasmic domain was cloned; made in house; host or cells: SF21 insect cells (baculovirus)
# In short: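 GST-tagged human IGF1R cytoplasmic domain from SF21 cells incubated with compound in 50 mM Hepes pH 7.5, 5 mM MnCl2, 50 mM NaCl, […] ATP. Autophosphorylation detected by HTRF (Eu-K anti-phosphotyrosine, XL665 anti-GST) after EDTA/KF stop; percentage inhibition versus no-compound control.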
# [6] = 10 μM (values without asterisk)
# T1 sequence (Q05397 whole entry): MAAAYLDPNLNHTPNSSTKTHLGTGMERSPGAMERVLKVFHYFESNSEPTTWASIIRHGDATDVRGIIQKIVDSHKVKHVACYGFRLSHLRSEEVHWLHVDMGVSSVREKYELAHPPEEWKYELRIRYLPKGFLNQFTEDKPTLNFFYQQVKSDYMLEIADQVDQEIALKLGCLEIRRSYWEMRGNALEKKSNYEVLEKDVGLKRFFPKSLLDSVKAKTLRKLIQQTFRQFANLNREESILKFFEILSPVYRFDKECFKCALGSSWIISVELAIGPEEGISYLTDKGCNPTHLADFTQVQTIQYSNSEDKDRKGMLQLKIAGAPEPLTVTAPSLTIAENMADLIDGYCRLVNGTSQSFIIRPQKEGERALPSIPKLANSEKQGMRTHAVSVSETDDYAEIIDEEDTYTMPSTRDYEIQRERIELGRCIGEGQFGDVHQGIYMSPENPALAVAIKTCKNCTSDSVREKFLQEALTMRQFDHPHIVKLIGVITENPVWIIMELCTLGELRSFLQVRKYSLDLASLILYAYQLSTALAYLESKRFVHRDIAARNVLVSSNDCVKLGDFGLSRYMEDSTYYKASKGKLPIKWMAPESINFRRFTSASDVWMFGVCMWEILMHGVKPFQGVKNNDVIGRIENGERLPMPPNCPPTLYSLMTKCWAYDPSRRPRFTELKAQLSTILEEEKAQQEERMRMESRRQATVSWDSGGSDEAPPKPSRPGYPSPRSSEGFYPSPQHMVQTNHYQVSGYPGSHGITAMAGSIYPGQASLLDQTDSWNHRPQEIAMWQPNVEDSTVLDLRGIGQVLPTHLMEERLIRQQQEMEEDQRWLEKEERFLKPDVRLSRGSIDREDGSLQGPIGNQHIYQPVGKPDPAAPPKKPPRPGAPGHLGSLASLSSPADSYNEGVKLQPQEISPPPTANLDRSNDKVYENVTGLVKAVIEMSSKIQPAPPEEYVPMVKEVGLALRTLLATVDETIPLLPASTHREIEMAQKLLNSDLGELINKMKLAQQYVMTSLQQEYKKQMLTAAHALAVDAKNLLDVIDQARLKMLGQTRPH
# T2 sequence (P35968 786-1356 limits assumed): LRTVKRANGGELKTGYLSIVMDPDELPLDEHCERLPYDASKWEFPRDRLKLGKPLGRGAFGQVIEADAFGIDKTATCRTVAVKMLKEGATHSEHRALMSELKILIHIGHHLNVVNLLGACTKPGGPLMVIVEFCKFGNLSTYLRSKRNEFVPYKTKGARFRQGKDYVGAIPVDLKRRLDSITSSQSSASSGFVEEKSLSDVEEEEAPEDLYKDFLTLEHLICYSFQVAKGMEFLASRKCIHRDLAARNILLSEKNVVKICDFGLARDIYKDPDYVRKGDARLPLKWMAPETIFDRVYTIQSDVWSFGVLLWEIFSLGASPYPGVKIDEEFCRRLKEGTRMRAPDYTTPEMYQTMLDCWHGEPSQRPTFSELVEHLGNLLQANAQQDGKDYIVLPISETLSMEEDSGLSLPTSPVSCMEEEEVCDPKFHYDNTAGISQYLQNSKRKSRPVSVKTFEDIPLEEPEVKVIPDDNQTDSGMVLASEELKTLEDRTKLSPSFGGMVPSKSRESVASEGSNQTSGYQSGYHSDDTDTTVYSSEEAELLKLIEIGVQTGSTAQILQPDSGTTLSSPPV
# T4 sequence (P08069 960-1367 limits assumed): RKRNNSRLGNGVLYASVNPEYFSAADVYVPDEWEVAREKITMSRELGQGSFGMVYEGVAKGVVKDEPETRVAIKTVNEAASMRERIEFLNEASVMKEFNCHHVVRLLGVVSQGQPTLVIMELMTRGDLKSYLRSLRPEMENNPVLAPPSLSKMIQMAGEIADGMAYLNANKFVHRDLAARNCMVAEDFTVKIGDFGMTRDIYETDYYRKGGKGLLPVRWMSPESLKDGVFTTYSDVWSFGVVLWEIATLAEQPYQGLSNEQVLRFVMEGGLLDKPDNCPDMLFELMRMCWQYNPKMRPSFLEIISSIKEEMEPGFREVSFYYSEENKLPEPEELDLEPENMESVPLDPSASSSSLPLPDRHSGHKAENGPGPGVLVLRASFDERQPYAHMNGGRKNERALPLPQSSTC
"inhibition at 10 µM [1, 6] [%]",melting point [°C],inhibition at 10 µM [2] [%],inhibition at 10 µM [3] [%],SRC % inhib at 10 μM [4] [%],"FAK % inhib at 10 μM ([1]; 10 μM (values without asterisk), 10 µM) [%]",KDR % inhib at 10 μM [2] [%],Aurora2 % inhib at 10 μM [3] [%],IGF1R % inhib at 10 μM [5] [%],"inhibition at 30 µM ([1]; 30 μM (values marked *), read-out: FAK % inhib at 30* μM) [%]",Compound
73,215,36,93,–,–,–,–,–,–,"CS(=O)(=O)c1ccccc1S(=O)(=O)Nc1ccc2[nH]nc(CCc3ccc(Cl)cc3)c2c1 [Example 77, N-{3-[2-(4-Chlorophenyl)ethyl]-1H-indazol-5-yl}-2-methylsulfonylbenzenesulfonamide]"
53,–,96,96,51,–,–,–,–,–,"O=S(=O)(Nc1ccc2[nH]nc(-c3ccccc3)c2c1)c1ccccc1Br [Example 139, 2-Bromo-N-(3-phenyl-1H-indazol-5-yl)-benzenesulfonamide]"
44,160,46,79,–,–,–,–,–,–,"O=S(=O)(Nc1ccc2[nH]nc(-c3ccccc3)c2c1)C1CCCCC1 [Example 99, N-(3-Phenyl-1H-indazol-5-yl)cyclohexanesulfonamide]"
75,172,98,90,–,–,–,–,–,–,"COc1ccc(-c2n[nH]c3ccc(NS(=O)(=O)c4ccccc4)cc23)cc1 [Example 31, N-[3-(4-Methoxyphenyl)-1H-indazol-5-yl]benzenesulfonamide]"
90,249,55,88,–,–,–,–,–,–,"CS(=O)(=O)c1ccccc1S(=O)(=O)Nc1ccc2[nH]nc(-c3ccsc3)c2c1 [Example 51, 2-Methylsulfonyl-N-(3-thiophen-3-yl-1H-indazol-5-yl)benzenesulfonamide]"
89,192,45,100,–,–,–,–,–,–,"CS(=O)(=O)c1ccccc1S(=O)(=O)Nc1ccc2[nH]nc(CCc3ccccc3)c2c1 [Example 90, 2-Methylsulfonyl-N-(3-phenethyl-1H-indazol-5-yl)benzenesulfonamide]"
26,–,94,69,18,–,–,–,–,–,"O=S(=O)(Nc1ccc2[nH]nc(-c3ccccc3)c2c1)c1cccc(C(F)(F)F)c1 [Example 130, 3-Trifluoromethyl-N-(3-phenyl-1H-indazol-5-yl)-benzenesulfonamide]"
69,–,3,86,56,–,–,–,–,–,"CS(=O)(=O)c1ccccc1S(=O)(=O)Nc1ccc2[nH]nc(Br)c2c1 [Example 38, N-(3-Bromo-1H-indazol-5-yl)-2-methylsulfonylbenzenesulfonamide]"
82,234,35,87,–,–,–,–,–,–,"CS(=O)(=O)c1ccccc1S(=O)(=O)Nc1ccc2[nH]nc(CCc3ccc(F)cc3)c2c1 [Example 75, N-{3-[2-(4-Fluorophenyl)ethyl]-1H-indazol-5-yl}-2-methylsulfonylbenzenesulfonamide]"
59,–,98,85,62,–,–,–,–,–,"O=S(=O)(Nc1ccc2[nH]nc(-c3ccccc3)c2c1)c1cccc(Cl)c1 [Example 136, 3-Chloro-N-(3-phenyl-1H-indazol-5-yl)-benzenesulfonamide]"
–,246,–,–,–,99,80,91,63,–,"CS(=O)(=O)c1ccccc1S(=O)(=O)Nc1ccc2[nH]nc(-c3cccs3)c2c1 [Example 50, 2-Methylsulfonyl-N-(3-thiophen-2-yl-1H-indazol-5-yl)benzenesulfonamide]"
75,–,20,100,90,–,–,–,–,–,"CS(=O)(=O)c1ccccc1S(=O)(=O)Nc1ccc2[nH]nc(-c3ccc([N+](=O)[O-])cc3)c2c1 [Example 66, N-[3-(4-Nitrophenyl)-1H-indazol-5-yl]-2-methylsulfonylbenzenesulfonamide]"
0,–,96,86,88,–,–,–,–,–,"CCCCN(CCCC)c1cccc2c(S(=O)(=O)Nc3ccc4[nH]nc(-c5ccccc5)c4c3)cccc12 [Example 147, 5-Dibutylamino-N-(3-phenyl-1H-indazol-5-yl)naphthalene-1-sulfonamide]"
66,170,32,89,–,–,–,–,–,–,"CS(=O)(=O)c1ccccc1S(=O)(=O)Nc1ccc2[nH]nc(/C=C/C(=O)O)c2c1.Cl [Example 80, (E)-3-[5(2-Methylsulfonylbenzenesulfonylamino)-1H-indazol-3-yl]-acrylic acid]"
53,–,91,94,78,–,–,–,–,–,"Nc1cccc(S(=O)(=O)Nc2ccc3[nH]nc(-c4ccccc4)c3c2)c1 [Example 98, 3-Amino-N-(3-phenyl-1H-indazol-5-yl)benzenesulfonamide]"
91,244,85,95,–,–,–,–,–,–,"COC(=O)c1ccc(-c2n[nH]c3ccc(NS(=O)(=O)c4ccccc4S(C)(=O)=O)cc23)cc1 [Example 68, Methyl 4-[5-(2-methylsulfonylbenzenesulfonamino)-1H-indazol-3-yl]benzoate]"
89,258,18,97,–,–,–,–,–,–,"CS(=O)(=O)c1ccccc1S(=O)(=O)Nc1ccc2[nH]nc(C(=O)Nc3ccccc3)c2c1 [Example 18, N-Phenyl-5-(2-methylsulfonylbenzenesulfonylamino)-1H-indazole-3-carboxamide]"
76,179,10,60,–,–,–,–,–,–,"O=S(=O)(Nc1ccc2[nH]ncc2c1)c1ccccc1 [Example 24, N-(1H-Indazol-5-yl)benzenesulfonamide]"
–,184,11,50,–,–,–,–,–,38,"Cc1n[nH]c2ccc(NS(=O)(=O)c3ccc(Cl)c(Cl)c3)cc12 [Example 25, 3,4-Dichloro-N-(3-methyl-1H-indazol-5-yl)benzenesulfonamide]"
5,245,9,42,–,–,–,–,–,–,"CC(=O)Nc1ccccc1-c1n[nH]c2ccc(NS(=O)(=O)c3ccccc3S(C)(=O)=O)cc12 [Example 48, N-{2-[5-(2-Methylsulfonylbenzenesulfonylamino)-1H-indazol-3-yl]phenyl}acetamide]"
